pEC50: −log10 of the molar value. Where a name gives a salt, the structure may show the parent alone. A value given as a limit tells only on which side of the number the result lay.

The test system of the first assay is NQO1 specific enzyme activity in BEAS-2B cells. The experiment in a line: BEAS-2B NQO1 MTT assay. Type of assay: cell-based. The settings on record: BEAS-2B cells, 48 hours with compound, MTT readout; read-out: EC50 of NQO1 specific activity induction. Summed up:
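BEAS-2B cells treated with compound 48 h at 37° C, 5% CO2, then lysed; NQO1 activity in lysate measured kinetically by MTT cocktail at Absorbance 570 nm over 30 min. EC50 for induction from Delta OD/min versus log concentration, 3-parameter fit; Cell Titer Glo run on lysate aliquot.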
Consider `Cc1ccc([C@@H](CC(=O)O)c2ccc3c(nnn3C)c2C)cc1CN1CCCC(n2cccn2)C1` (single isomer, unassigned; isomer 1) [Example 157], for which the pEC50 is 6.00 to 7.00.

For `CCCn1cc(CCC(c2ccc(C)c(Cn3ccnc3CN3CCC(CC)CC3)c2)C(C)(C)C(=O)O)nn1` (single isomer, unassigned) [Example 247, 3-(3-((2-((4-Ethylpiperidin-1-yl)methyl)-1H-imidazol-1-yl)methyl)-4-methylphenyl)-2,2-dimethyl-5-(1-propyl-1H-1,2,3-triazol-4-yl)pentanoic Acid], the negative logarithm of the EC50 (pEC50) is 8.00 to 9.00.

The assay is the same for the next values; noted with them: Homo sapiens, BEAS-2B, 48 h, BEAS-2B cells, 48 hours with compound, MTT readout; read-out: EC50 of NQO1 specific activity induction.
In the case of `CCn1nnc2c(C)c([C@H](c3ccc(C)c(CN4Cc5ccccc5OC(C)(C)C4)c3)C(C)(C)C(=O)O)ccc21` (single isomer, unassigned; enantiomer b) [Example 207], the pEC50 is 7.00 to 8.00.

Turning to `CCC1Cc2ccc(F)cc2CN(Cc2cc(C(CC(=O)O)c3ccc4c(nnn4C)c3C)ccc2C)C1` (centres unmarked) [compound 107, 3-(1,4-dimethyl-1H-benzo[d][1,2,3]triazol-5-yl)-3-(3-((4-ethyl-8-fluoro-4,5-dihydro-1H-benzo[c]azepin-2(3H)-yl)methyl)-4-methylphenyl)propanoic acid], the pEC50 is 7.00 to 8.00. As for `CC[C@@H]1CN(Cc2cc([C@H](c3ccc4c(nnn4CC)c3C)[C@H](C)C(=O)O)ccc2C)Cc2cnccc2O1` [Example 197, (2S,3R)-3-(3-(((R)-2-Ethyl-2,3-dihydropyrido[3,4-f][1,4]oxazepin-4(5H)-yl)methyl)-4-methylphenyl)-3-(1-ethyl-4-methyl-1H-benzo[d][1,2,3]triazol-5-yl)-2-methylpropanoate, Sodium salt], the pEC50 was 7.00 to 8.00. On the same count and under the same terms, in the case of `Cc1ccc(C(CC(=O)O)c2ccc3c(nnn3C)c2C)cc1Cn1ccnc1CN1CCCCC1` (centres unmarked) [Example 154, 3-(1,4-dimethyl-1H-benzo[d][1,2,3]triazol-5-yl)-3-(4-methyl-3-((2-(piperidin-1-ylmethyl)-1H-imidazol-1-yl)methyl)phenyl)propanoic Acid, Trifluoroacetic Acid Salt] it was 6.00 to 7.00; in that of `CCn1nnc2c(C)c([C@@H](c3ccc(C)c(CN4Cc5ccccc5OC(C)(C)C4)c3)[C@H](C)C(=O)O)ccc21` [Example 200, (2S,3R)-3-(3-((2,2-Dimethyl-2,3-dihydrobenzo[f][1,4]oxazepin-4(5H)-yl)methyl)-4-methylphenyl)-3-(1-ethyl-4-methyl-1H-benzo[d][1,2,3]triazol-5-yl)-2-methylpropanoic Acid, 2 Trifluoroacetic Acid Salt], 7.00 to 8.00; in that of `CC[C@@H]1CN(Cc2cc([C@H](CC(=O)O)c3ccc4c(nnn4C)c3C)ccc2F)Cc2ccncc2O1` [Example 260, (S)-3-(1,4-dimethyl-1H-benzo[d][1,2,3]triazol-5-yl)-3-(3-(((R)-2-ethyl-2,3-dihydropyrido[4,3-f][1,4]oxazepin-4(5H)-yl)methyl)-4-fluorophenyl)propanoic acid], 6.00 to 7.00. The same measure, in the same setting: in the case of `CC[C@@H]1CN(Cc2cc(C(c3ccc4c(nnn4C)c3C)C(C)(C)C(=O)O)ccc2C)Cc2cc(F)ccc2O1` (stereo partly drawn) [Example 32, 3-(1,4-Dimethyl-1H-benzo[d][1,2,3]triazol-5-yl)-3-(3-(((R)-2-ethyl-7-fluoro-2,3-dihdyrobenzo[f][1,4]oxaz-epin-4(5H)-yl)methyl)-4-methylphenyl)-2,2-dimethylpropanoic acid, formic acid salt] it was 8.00 to 9.00; in that of `CCn1nnc2c(F)c([C@@H](CC(=O)O)c3ccc(C)c(CN4Cc5ccccc5OC(C)(C)C4)c3)ccc21` [Example 64, (S)-3-(3-((2,2-Dimethyl-2,3-dihydrobenzo[f][1,4]oxazepin-4(5H)-yl)methyl)-4-methylphenyl)-3-(1-ethyl-4-fluoro-1H-benzo[d][1,2,3]triazol-5-yl)propanoic Acid], 7.00 to 8.00. Same read-out and setting: next, `Cc1ccc(C(CC(=O)O)c2ccc3c(nnn3C)c2C)cc1CN1CCCC(S(=O)(=O)C2CCCCC2)C1` (centres unmarked) [compound 186, 3-(3-((3-(Cyclohexylsulfonyl)piperidin-1-yl)methyl)-4-methylphenyl)-3-(1,4-dimethyl-1H-benzo[d][1,2,3]triazol-5-yl)propanoic acid]: 6.00 to 7.00. With `Cc1ccc(C(c2ccc3c(nnn3C)c2C)C(C)(C)C(=O)O)cc1CN1Cc2ccccc2OC(C)(C)C1` (centres unmarked) [Example 8, 3-(1,4-Dimethyl-1H-benzo[d][1,2,3]triazol-5-yl)-3-(3-((2,2-dimethyl-2,3-dihydrobenzo[f][1,4]oxazepin-4(5H)-yl)methyl)-4-methylphenyl)-2,2-dimethylpropanoic Acid, Formic Acid Salt], the pEC50 was 8.00 to 9.00. The same measure, in the same setting: in the case of `CC[C@@H]1CN(Cc2cc([C@@H](c3ccc4c(nnn4C)c3C)C(C)(C)C(=O)O)ccc2C)Cc2cncc(F)c2O1` [Example 28, (S)-3-(1,4-Dimethyl-1H-benzo[d][1,2,3]triazol-5-yl)-3-(3-(((R)-2-ethyl-9-fluoro-2,3-dihydropyrido[3,4-f][1,4]oxazepin-4(5H)-yl)methyl)-4-methylphenyl)-2,2-dimethylpropanoic acid] it was over 9.00; in that of `CC[C@@H]1CN(Cc2cc([C@H](CC(=O)O)c3ccc4c(nnn4C)c3C)ccc2C)Cc2cccc(F)c2O1` [Example 58, (S)-3-(1,4-Dimethyl-1H-benzo[d][1,2,3]triazol-5-yl)-3-(3-(((R)-2-ethyl-9-fluoro-2,3-dihydrobenzo[f][1,4]oxazepin-4(5H)-yl)methyl)-4-methylphenyl)propanoic acid, Sodium salt], 7.00 to 8.00; in that of `CC[C@@H]1CN(Cc2cc(C(CCc3cn(CC)nn3)CC(=O)O)ccc2C)Cc2cnccc2O1` (stereo partly drawn) [Example 232, 5-(1-Ethyl-1H-1,2,3-triazol-4-yl)-3-(3-(((R)-2-ethyl-2,3-dihydropyrido[3,4-f][1,4]oxazepin-4(5H)-yl)methyl)-4-methylphenyl)pentanoic Acid], 6.00 to 7.00. Same read-out and setting: in the case of `Cc1ccc([C@H](CC(=O)O)c2ccc3c(nnn3C)c2C)cc1CN1CCCC(n2cccn2)C1` (single isomer, unassigned) [compound 159] it was 5.00 to 6.00; in that of `CC[C@@H]1CN(Cc2cc([C@@H](c3ccc4c(nnn4CC)c3F)[C@@H](C)C(=O)O)ccc2C)Cc2cccc(F)c2O1` [Example 192, (2R,3S)-3-(1-Ethyl-4-fluoro-1H-benzo[d][1,2,3]triazol-5-yl)-3-(3-(((R)-2-ethyl-9-fluoro-2,3-dihydrobenzo[f][1,4]oxazepin-4(5H)-yl)methyl)-4-methylphenyl)-2-methylpropanoic acid], 8.00 to 9.00. Still for that read-out and setting: next, `CCC1CCC(Cc2nccn2Cc2cc(C(CC(=O)O)c3ccc4c(nnn4C)c3C)ccc2C)CC1` (centres unmarked) [Example 132, 3-(1,4-Dimethyl-1H-benzo[d][1,2,3]triazol-5-yl)-3-(3-((2-((4-ethylcyclohexyl)methyl)-1H-imidazol-1-yl)methyl)-4-methylphenyl)propanoic Acid]: 5.00 to 6.00; `Cc1ccc(C(CC(=O)O)c2ccc3c(nnn3C)c2C)cc1Cn1ccnc1CN1CCCCCC1` (centres unmarked) [Example 147, 3-(3-((2-(Azepan-1-ylmethyl)-1H-imidazol-1-yl)methyl)-4-methylphenyl)-3-(1,4-dimethyl-1H-benzo[d][1,2,3]triazol-5-yl)propanoic acid, formic acid salt]: 5.00 to 6.00.

Staying with this assay, now noted: Homo sapiens; BEAS-2B cells, 48 hours with compound, MTT readout; read-out: EC50 of NQO1 specific activity induction.
Take `CC[C@@H]1CN(Cc2cc([C@@H](c3ccc4c(nnn4C)c3C)C(C)(C)C(=O)OCOP(=O)(O)Oc3ccccc3)ccc2C)Cc2cnccc2O1` [Example 254]: the negative logarithm of the EC50 (pEC50) was 8.00 to 9.00.

The record behind these values is patent US10604509B2, “Nrf2 regulators” (GlaxoSmithKline Intellectual Property Development Limited, priority 2015, dated 2020).
